Holding throughout (type): cell-based
One experiment concerns SK-BR-3 tumor cells. In words: Inhibition of SK-BR-3 tumor cell proliferation (CellTiter-Glo). To be noted: Homo sapiens, HER2 high expression cells, 96 hours, cell viability, read-out: IC50, inhibitory effects on SK-BR-3 tumor cells. The protocol: (§1) Tumor cells in the logarithmic phase of growth were collected, and 5000 cells per well were evenly inoculated in each hole of the 96-well plate. After the cell adhesion overnight, the cells were treated with different concentrations of drugs for 96 hours. Cell viability was measured by CellTiter-Glo® luminescence cell viability detection kit, and the percentage of cell viability was calculated.
(In general: In ATP-based viability assays light output follows the ATP content of the culture.)

The subject of the next experiment is NCI-N87 tumor cells. In words: Inhibition of NCI-N87 tumor cell proliferation (CellTiter-Glo). To be noted: Homo sapiens, HER2 high expression cells, 96 hours, cell viability, read-out: IC50, inhibitory effects on NCI-N87 tumor cells. How it is done:
as §1

The subject of another experiment is MDA-MB-468 tumor cells. In words: Inhibition of MDA-MB-468 tumor cell proliferation (CellTiter-Glo). To be noted: Homo sapiens, HER2-negative cells, 96 hours, cell viability, read-out: IC50, inhibitory effects on MDA-MB-468 tumor cells. How it is done:
as §1

As for `C=C1C[C@@H]2CC[C@@]34C[C@H]5O[C@H]6[C@@H](O3)[C@H]3O[C@H](CC[C@@H]3O[C@H]6[C@H]5O4)CC(=O)C[C@@H]3[C@@H](OC)[C@@H](C[C@H](O)CN)O[C@H]3C[C@H]3O[C@@H](CC[C@@H]1O2)C[C@@H](C)C3=C` [Eribulin], the half-inhibitory concentration (IC50) (in general, the point on the concentration scale where inhibition reaches its midpoint) with SK-BR-3 tumor cells was found to be 0.305 nM; in the experiment on NCI-N87 tumor cells, 0.614 nM; with MDA-MB-468 tumor cells, 0.0933 nM.

These data come from patent US20260284211A1, “DISACCHARIDE LINKER, LINKER-PAYLOAD CONTAINING THE SAME AND GLYCAN CHAIN-REMODELED ANTIBODY-DRUG CONJUGATE, PREPARATION METHOD AND USES THEREOF” (GENEQUANTUM HEALTHCARE (SUZHOU) CO., LTD., priority 2023, published 2026).
